The target in this test is T1, Troponin C, slow skeletal and cardiac muscles [4-85] (Human, UniProt P63316).
T1 construct: 4-85
As to the kind of experiment: Fluorescence Polarization Assay. As to conditions: pH 7; 14 °C. The method, then: The fluorescence polarization assays were performed at 298 K following a protocol modified from previously reported protocol [Zhuo et al., Mol. Biosyst., 12:2532-2540]. Synthetic peptides were labeled with fluorescein. Titrations were conducted by monitoring polarization as a function of increasing amounts of the proteins of TnC N-terminal domain added to 20 nM fluorescein-peptides in a buffer 50 mM HEPES, pH 7.0, 0.1% Tween 20, 200 mM NaCl and 15 mM DTT.

T1 sequence (P63316 4-85): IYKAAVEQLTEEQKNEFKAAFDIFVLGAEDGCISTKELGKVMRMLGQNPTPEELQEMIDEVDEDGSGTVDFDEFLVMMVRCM

For orientation: Kd means the concentration at which binding is half-saturated. A lower Kd goes with tighter binding. `CSCC[C@H](NC(=O)[C@H](C)NC(=O)[C@H](CC(=O)O)NC(=O)[C@H](C)N)C(=O)N[C@@H](CCSC)C(=O)N[C@@H](CCC(N)=O)C(=O)N[C@@H](C)C(=O)N[C@@H](CC(C)C)C(=O)N[C@@H](CC(C)C)C(=O)NCC(=O)N[C@@H](C)C(=O)N[C@@H](CCCNC(=N)N)C(=O)O` [ADAMMQALLGAR] came in with a dissociation constant Kd of 15.7 µM.

`CC[C@H](C)[C@H](N)C(=O)N[C@@H](CO)C(=O)N[C@@H](C)C(=O)N[C@@H](CC(=O)O)C(=O)N[C@@H](C)C(=O)N[C@@H](CCSC)C(=O)N[C@@H](CCSC)C(=O)N[C@@H](CCC(N)=O)C(=O)N[C@@H](C)C(=O)N[C@@H](CC(C)C)C(=O)N[C@@H](CC(C)C)C(=O)NCC(=O)N[C@@H](C)C(=O)N[C@@H](CCCNC(=N)N)C(=O)N[C@@H](C)C(=O)N[C@@H](CCCCN)C(=O)N[C@@H](CCC(=O)O)C(=O)N[C@@H](CO)C(=O)O` [ISADAMMQALLGARAKES] came in with a Kd of 4.2 µM.

The values above are taken from BindingDB's records for doi:10.1016/j.bioorg.2017.05.004 (The Affiliated Hospital of Qingdao University, 2017).
